Each molecule was assayed against T1, bovine serum albumin (BSA) (Bos taurus, UniProt P02769) (assay: intrinsic fluorescence quenching, excitation […] nm). Conditions: 297 K, phosphate buffer pH 7.5, no site marker; double-log.
T1 construct: gene ALB; native plasma protein, commercial (Sigma-Aldrich), mature form
Assay type: binding

T1 sequence (P02769 25-607): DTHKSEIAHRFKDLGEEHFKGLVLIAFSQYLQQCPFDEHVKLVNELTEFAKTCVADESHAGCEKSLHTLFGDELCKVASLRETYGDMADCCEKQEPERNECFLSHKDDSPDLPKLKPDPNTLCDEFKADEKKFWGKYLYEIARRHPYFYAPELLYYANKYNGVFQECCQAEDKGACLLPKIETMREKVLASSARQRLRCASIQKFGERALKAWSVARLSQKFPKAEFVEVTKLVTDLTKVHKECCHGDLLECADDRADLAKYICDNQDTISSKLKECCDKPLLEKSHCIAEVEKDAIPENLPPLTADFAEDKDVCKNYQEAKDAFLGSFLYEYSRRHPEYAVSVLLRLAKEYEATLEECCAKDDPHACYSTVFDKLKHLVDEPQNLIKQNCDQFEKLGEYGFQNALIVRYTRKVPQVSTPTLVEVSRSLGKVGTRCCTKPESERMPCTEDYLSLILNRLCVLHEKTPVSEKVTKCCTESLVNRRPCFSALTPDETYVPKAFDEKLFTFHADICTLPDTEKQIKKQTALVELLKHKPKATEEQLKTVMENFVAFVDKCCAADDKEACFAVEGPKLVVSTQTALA

| Binding / Kb × 10^5 [dm^3.mol^-1] | SMILES |
| --- | --- |
| 2.13 × 10^5 dm^3·mol^−1 | O=C1c2ccccc2C(=O)N1CC(O)CN1CCN(c2ccccc2)CC1 (centres unmarked) [F1] |
| 0.55 × 10^5 dm^3·mol^−1 | COc1ccccc1N1CCN(CC(O)CN2C(=O)c3ccccc3C2=O)CC1 (centres unmarked) [F2] |
| 1.75 × 10^5 dm^3·mol^−1 | O=C1c2ccccc2C(=O)N1CC(O)CN1CCN(c2cccc(C(F)(F)F)c2)CC1 (centres unmarked) [F3] |
| 1.99 × 10^5 dm^3·mol^−1 | O=C1c2ccccc2C(=O)N1CC(O)CN1CCN(C(c2ccccc2)c2ccccc2)CC1 (centres unmarked) [F4] |

These molecules were tested against T2, bovine α1-acid glycoprotein (AAG), orosomucoid (Bos taurus, UniProt Q3SZR3) (assay: intrinsic fluorescence quenching, excitation […] nm). Conditions: 297 K, phosphate buffer pH 7.5; double-log.
T2 construct: gene ORM1; native plasma glycoprotein, commercial (Sigma-Aldrich), mature form
T2 sequence (Q3SZR3 19-202): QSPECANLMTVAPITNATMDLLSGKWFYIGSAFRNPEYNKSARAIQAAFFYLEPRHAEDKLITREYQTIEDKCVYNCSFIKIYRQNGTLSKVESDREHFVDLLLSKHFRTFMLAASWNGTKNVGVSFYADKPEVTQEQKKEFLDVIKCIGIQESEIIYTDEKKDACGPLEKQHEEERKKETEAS
Assay type: binding

| Binding / Kb × 10^3 [dm^3.mol^-1] | SMILES |
| --- | --- |
| 2.12 × 10^3 dm^3·mol^−1 | O=C1c2ccccc2C(=O)N1CC(O)CN1CCN(c2ccccc2)CC1 (centres unmarked) [F1] |
| 1.21 × 10^3 dm^3·mol^−1 | COc1ccccc1N1CCN(CC(O)CN2C(=O)c3ccccc3C2=O)CC1 (centres unmarked) [F2] |
| 4.17 × 10^3 dm^3·mol^−1 | O=C1c2ccccc2C(=O)N1CC(O)CN1CCN(c2cccc(C(F)(F)F)c2)CC1 (centres unmarked) [F3] |
| 2.75 × 10^3 dm^3·mol^−1 | O=C1c2ccccc2C(=O)N1CC(O)CN1CCN(C(c2ccccc2)c2ccccc2)CC1 (centres unmarked) [F4] |

Source: paper PMC9266550, “The 2-hydroxy-3-(4-aryl-1-piperazinyl)propyl Phthalimide Derivatives as Prodrugs—Spectroscopic and Theoretical Binding Studies with Plasma Proteins” (International Journal of Molecular Sciences, 2022)
